From patent publication US20020137929A1, “1 - (3-heterocyclylphenyl) isothiourea, -isourea, -guanidine and -amidine herbicidal agents” (Intellectual Property Department, BASF Aktiengesellschaft, priority 1998, published 2002)

How the values were obtained:
[1] = system: IPOHE (Morningglory, Ivyleaf); test: Postemergence herbicidal evaluation; type: in vivo, Ipomoea hederacea; conditions: postemergence
Procedure, shortened: (§1)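 Young plants, roughly two weeks from seeding, receive the active ingredient as a sprayed dispersion (acetone/water 50/50, 0.5% TWEEN 20) at 40 psi. Doses span about 0.0156 to 0.500 kg/ha. A visual score from 0 to 9 compares treated with control plants four to five weeks on.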

[2] = system: CHEAL (Lambsquarters, Common); test: Postemergence herbicidal evaluation; type: in vivo, Chenopodium album; conditions: postemergence
Procedure, shortened: as §1

ECHCG (Barnyardgrass) = test: Preemergence herbicidal evaluation; type: in vivo, Echinochloa crus-galli; conditions: rated 4-5 weeks after treatment
Procedure, shortened: (§2)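 Scores (0–9) reflect visual comparison with control plants for stand, vigor, malformation, size and chlorosis. Compound was applied to the soil after sowing, before emergence, as an aqueous acetone spray (about 0.0156–0.500 kg/ha), and cups were kept in a greenhouse for 4–5 weeks.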

[3] = system: GLXMAW (Soybean, Williams); test: Preemergence herbicidal evaluation; type: in vivo, Glycine max, (L.) Merr. cv Williams; conditions: rated 4-5 weeks after treatment
Procedure, shortened: as §2

GALAP (Galium) = test: Preemergence herbicidal evaluation; type: in vivo, Galium aparine; conditions: rated 4-5 weeks after treatment
Procedure, shortened: as §2

[4] = rate 0.0156 kg/ha, rating scale 0-9
[5] = rate 0.0313 kg/ha, rating scale 0-9
[6] = rate 0.0625 kg/ha, rating scale 0-9
[7] = rate 0.1250 kg/ha, rating scale 0-9
[8] = rate 0.2500 kg/ha, rating scale 0-9

SMILES | herbicidal rating IPOHE ([1]; rate 0.0156 kg/ha) | herbicidal rating IPOHE ([1]; rate 0.0313 kg/ha) | herbicidal rating IPOHE ([1]; rate 0.0625 kg/ha) | herbicidal rating CHEAL ([2]; rate 0.0156 kg/ha) | herbicidal rating CHEAL ([2]; rate 0.0313 kg/ha) | herbicidal rating CHEAL ([2]; rate 0.0625 kg/ha) | Preemergence herbicidal rating ECHCG (ECHCG (Barnyardgrass); rate 0.0625 kg/ha) | Preemergence herbicidal rating ECHCG (ECHCG (Barnyardgrass); rate 0.1250 kg/ha) | Preemergence herbicidal rating ECHCG (ECHCG (Barnyardgrass); rate 0.2500 kg/ha) | Preemergence herbicidal rating ECHCG (ECHCG (Barnyardgrass); rate 0.5000 kg/ha) | Preemergence herbicidal rating GLXMAW ([3]; rate 0.0625 kg/ha) | Preemergence herbicidal rating GLXMAW ([3]; rate 0.1250 kg/ha) | Preemergence herbicidal rating GLXMAW ([3]; rate 0.2500 kg/ha) | Preemergence herbicidal rating GLXMAW ([3]; rate 0.5000 kg/ha) | Preemergence herbicidal rating GALAP (GALAP (Galium); rate 0.0625 kg/ha) | Preemergence herbicidal rating GALAP (GALAP (Galium); rate 0.1250 kg/ha) | Preemergence herbicidal rating GALAP (GALAP (Galium); rate 0.2500 kg/ha) | Preemergence herbicidal rating GALAP (GALAP (Galium); rate 0.5000 kg/ha) | Preemergence herbicidal rating ECHCG (ECHCG (Barnyardgrass); [6]) | Preemergence herbicidal rating ECHCG (ECHCG (Barnyardgrass); [7]) | also measured
CCOC(=O)CN1C(=O)C(SC)SC1=Nc1cc(-n2c(=O)cc(C(F)(F)F)n(C)c2=O)c(F)cc1Cl (stereo not drawn) [Compound 125, Ethyl 2-{{2-chloro-5-[3,6-dihydro-3-methyl-2,6-dioxo-4-(trifluoromethyl)-1(2H)-pyrimidinyl]-4-fluorophenyl}imino}-5-(methylthio)-4-oxo-3-thiazolidineacetate] | 9.0 | 9.0 | 9.0 | 3.0 | 9.0 | 9.0 | 0.0 | 3.0 | 7.0 | 9.0 | 0.0 | 3.0 | 4.0 | 7.0 | 0.0 | 1.0 | 7.0 | 9.0 |  |  | Preemergence herbicidal rating ECHCG (ECHCG (Barnyardgrass); rate 0.0156 kg/ha): 0.0; Preemergence herbicidal rating ECHCG (ECHCG (Barnyardgrass); rate 0.0313 kg/ha): 0.0; Preemergence herbicidal rating GLXMAW ([3]; rate 0.0156 kg/ha): 0.0; Preemergence herbicidal rating GLXMAW ([3]; rate 0.0313 kg/ha): 0.0; Preemergence herbicidal rating GALAP (GALAP (Galium); rate 0.0156 kg/ha): 0.0; Preemergence herbicidal rating GALAP (GALAP (Galium); rate 0.0313 kg/ha): 0.0
CCOC(=O)CN1C(=O)C(Cl)SC1=Nc1cc(-n2c(=O)cc(C(F)(F)F)n(C)c2=O)c(F)cc1Cl (stereo not drawn) [Compound 126, Ethyl 5-chloro-2-{{2-chloro-5-[3,6-dihydro-3-methyl-2,6-dioxo-4-(trifluoromethyl)-1(2H)-pyrimidinyl]-4-fluorophenyl}imino}-4-oxo-3-thiazolidineacetate] | 9.0 | 9.0 | 9.0 | 4.0 | 4.0 | 4.0 | 0.0 | 0.0 | 0.0 | 2.0 | 0.0 | 2.0 | 3.0 | 7.0 | 0.0 | 0.0 | 9.0 | 9.0 |  |  | herbicidal rating IPOHE ([1]; rate 0.1250 kg/ha): 9.0; herbicidal rating CHEAL ([2]; rate 0.1250 kg/ha): 9.0
CCOC(=O)CN1C(=O)C(C(=O)OCC)SC1=Nc1cc(-n2c(=O)cc(C(F)(F)F)n(C)c2=O)c(F)cc1Cl (stereo not drawn) [Compound 127, 5-Carboxy-2-{{2-chloro-5-[3,6-dihydro-3-methyl-2,6-dioxo-4-(trifluoromethyl)-1(2H)-pyrimidinyl]-4-fluorophenyl}imino}-4-oxo-3-thiazolidineacetic acid, diethyl ester] | 9.0 | 9.0 | 9.0 | 4.0 | 4.0 | 9.0 | 0.0 | 0.0 | 0.0 | 0.0 | 0.0 | 0.0 | 4.0 | 4.0 | 3.0 | 3.0 | 7.0 | 9.0 |  |  | herbicidal rating IPOHE ([1]; rate 0.1250 kg/ha): 9.0; herbicidal rating CHEAL ([2]; rate 0.1250 kg/ha): 9.0; Preemergence herbicidal rating ECHCG (ECHCG (Barnyardgrass); rate 0.0313 kg/ha): 0.0; Preemergence herbicidal rating GLXMAW ([3]; rate 0.0313 kg/ha): 0.0; Preemergence herbicidal rating GALAP (GALAP (Galium); rate 0.0313 kg/ha): 0.0
Cc1cccc(CN2C(=O)CSC2=Nc2cc(-n3c(=O)cc(C(F)(F)F)n(C)c3=O)c(F)cc2Cl)c1 [Compound 130, 3-{4-Chloro-2-fluoro-5-{[3-(m-methylbenzyl)-4-oxo-2-thiazolidinylidene]amino}phenyl}-1-methyl-6-(trifluoromethyl)-2,4 (1H, 3H)-pyrimidinedione] | 9.0 | 9.0 | 9.0 | 7.0 | 9.0 | 9.0 |  |  |  |  |  |  |  |  |  |  |  |  | 1.0 | 4.0 | Preemergence herbicidal rating ECHCG (ECHCG (Barnyardgrass); [4]): 0.0; Preemergence herbicidal rating ECHCG (ECHCG (Barnyardgrass); [5]): 0.0; Preemergence herbicidal rating ECHCG (ECHCG (Barnyardgrass); [8]): 7.0; Preemergence herbicidal rating GLXMAW [3, 4]: 0.0; Preemergence herbicidal rating GLXMAW [3, 5]: 0.0; Preemergence herbicidal rating GLXMAW [3, 6]: 2.0; Preemergence herbicidal rating GLXMAW [3, 7]: 3.0; Preemergence herbicidal rating GLXMAW [3, 8]: 5.0; Preemergence herbicidal rating GALAP (GALAP (Galium); [4]): 0.0; Preemergence herbicidal rating GALAP (GALAP (Galium); [6]): 0.0; Preemergence herbicidal rating GALAP (GALAP (Galium); [7]): 2.0; Preemergence herbicidal rating GALAP (GALAP (Galium); [8]): 2.0
COc1cccc(CN2C(=O)CSC2=Nc2cc(-n3c(=O)cc(C(F)(F)F)n(C)c3=O)c(F)cc2Cl)c1 [Compound 137, 3-{4-Chloro-2-fluoro-5-{[3-(m-methoxybenzyl)-4-oxo-2-thiazolidinylidene]amino}phenyl}-1-methyl-6-(trifluoromethyl)-2,4(1H,3H)-pyrimidinedione] | 9.0 | 9.0 | 9.0 | 6.0 | 9.0 | 9.0 |  |  |  |  |  |  |  |  |  |  |  |  | 0.0 | 0.0 | Preemergence herbicidal rating ECHCG (ECHCG (Barnyardgrass); [8]): 0.0; Preemergence herbicidal rating GLXMAW [3, 6]: 0.0; Preemergence herbicidal rating GLXMAW [3, 7]: 0.0; Preemergence herbicidal rating GLXMAW [3, 8]: 1.0; Preemergence herbicidal rating GALAP (GALAP (Galium); [6]): 0.0; Preemergence herbicidal rating GALAP (GALAP (Galium); [7]): 0.0; Preemergence herbicidal rating GALAP (GALAP (Galium); [8]): 0.0
COc1ccc(CN2C(=O)CSC2=Nc2cc(-n3c(=O)cc(C(F)(F)F)n(C)c3=O)c(F)cc2Cl)c(OC)c1 [Compound 139, 3-{4-Chloro-5-{[3-(2,4-dimethoxybenzyl)-4-oxo-2-thiazolidinylidene]amino}-2-fluorophenyl}-1-methyl-6-(trifluoromethyl)-2,4(1H,3H)-pyrimidinedione] | 9.0 | 9.0 | 5.0 | 9.0 | 9.0 | 9.0 |  |  |  |  |  |  |  |  |  |  |  |  | 0.0 | 1.0 | Preemergence herbicidal rating ECHCG (ECHCG (Barnyardgrass); [4]): 1.0; Preemergence herbicidal rating ECHCG (ECHCG (Barnyardgrass); [5]): 0.0; Preemergence herbicidal rating ECHCG (ECHCG (Barnyardgrass); [8]): 1.0; Preemergence herbicidal rating GLXMAW [3, 4]: 0.0; Preemergence herbicidal rating GLXMAW [3, 5]: 1.0; Preemergence herbicidal rating GLXMAW [3, 6]: 0.0; Preemergence herbicidal rating GLXMAW [3, 7]: 0.0; Preemergence herbicidal rating GLXMAW [3, 8]: 1.0; Preemergence herbicidal rating GALAP (GALAP (Galium); [4]): 0.0; Preemergence herbicidal rating GALAP (GALAP (Galium); [5]): 0.0; Preemergence herbicidal rating GALAP (GALAP (Galium); [6]): 0.0; Preemergence herbicidal rating GALAP (GALAP (Galium); [7]): 0.0; Preemergence herbicidal rating GALAP (GALAP (Galium); [8]): 0.0
